# Results taken from ChEMBL document CHEMBL1150501 (Bioorg Med Chem Lett, 1995).
# Target: Glucagon receptor (Rattus norvegicus, UniProt P30082)
# Experiment: pA2 value towards glucagon receptor relative to glucagon was calculated
# Glucagon receptor, sequence (P30082 whole entry): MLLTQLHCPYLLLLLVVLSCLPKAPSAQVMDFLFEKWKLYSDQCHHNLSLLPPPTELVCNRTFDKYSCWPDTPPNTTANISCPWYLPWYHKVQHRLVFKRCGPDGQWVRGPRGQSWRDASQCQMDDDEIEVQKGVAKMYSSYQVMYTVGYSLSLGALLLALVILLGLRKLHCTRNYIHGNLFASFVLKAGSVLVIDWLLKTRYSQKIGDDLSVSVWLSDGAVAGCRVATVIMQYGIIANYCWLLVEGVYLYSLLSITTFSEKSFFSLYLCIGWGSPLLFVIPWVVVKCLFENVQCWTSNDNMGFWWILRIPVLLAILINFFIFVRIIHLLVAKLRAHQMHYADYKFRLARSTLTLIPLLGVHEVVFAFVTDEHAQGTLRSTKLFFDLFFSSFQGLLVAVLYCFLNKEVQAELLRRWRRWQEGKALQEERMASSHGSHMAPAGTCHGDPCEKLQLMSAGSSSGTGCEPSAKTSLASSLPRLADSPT
substance,measurement,value
H-SQGTTSEYSKYLDSRRAQDFVQWLMNT-NH2,Kb,6.31 nM
